Measurements reported in patent US4016042A, “Substrate for the quantitative determination of enzymes” (Pentapharm A.G., priority 1974, dated 1977).
Where a name gives a salt, the structure may show the parent alone. Residues, ends and D or L forms follow the SMILES beside them. *: point of attachment. Hydrocinnamoyl = O=C(CCc1ccccc1)*; pNA = O=[N+]([O-])c1ccc(N*)cc1; Bz = O=C(c1ccccc1)*

Columns and labels:
Format in all cases: biochemical
[1] = biological target: T1, plasma kallikrein (Homo sapiens, UniProt P03952); assay: Km and vmax determination with substrate (Lineweaver-Burk), plasma kallikrein; details: common units per 1 substrate unit
Method: (§1) As is evident from equation (2) constants Km and k3 determine the activity of the enzyme substrate for a given enzyme. For determining these constants the following procedure is followed:
(§2) The enzyme and the substrate are mixed in a buffer solution, and the reaction is followed spectrophotometrically for 2 to 30 minutes. The concentration of substrate [S] is varied, whereas the enzyme concentration [E] is kept constant. If the extinction (OD) (= optical density) is plotted in a co-ordinate system as a function of time, a curve is obtained the tangent of which (difference in extinction per minute, Δ OD/minute, from which the quantity in μmoles of pNA/min (v) can be calculated) at time zero corresponds to the ideal course of the hydrolysis. By means of this tangent the initial rate of the hydrolysis can be determined.
(§3) If 1/v is plotted against 1/[S], a Lineweaver-Burk diagram (cf. "Kurzes Lehrbuch der Biochemie" by P. KARSON, Georg Thieme-Verlag, Stuttgart, 1967, p. 70) is obtained from which vmax and Km can be determined graphically.
(§4) Km and k3 = vmax /E were determined with N^α-Bz-Pro-Phe-Arg-pNA^. HCl (i.e. the substrate prepared according to Example 1) for plasma kallikrein, trypsin, plasmin and thrombin.

[2] = biological target: T1, plasma kallikrein; assay: Activity of plasma kallikrein measured with the substrates at constant substrate and enzyme concentrations; details: split product
Method: (§5) HCl, were used for the quantitative determination of various enzymes in blood plasma. The determination was carried out by taking advantage of the fact that the split product NH2 -R^2 formed by enzymatic hydrolysis of the substrate has a UV spectrum which differs from that of the substrate and is shifted toward higher wave lengths. Thus, N^α-Bz-Pro-Phe-Arg-pNA^.
(§6) The degree of the enzymatic hydrolysis of the substrate, which is proportional to the quantity of p-nitroaniline formed, can be easily determined by spectrophotometric measurement at 405 nm. […] The conditions are practically the same for the other substrates carrying a p-nitroanilino group as a chromogenic group. The spectrophotometric measurement was, therefore, carried out in all cases at 405 nm.

[3] = biological target: thrombin (Homo sapiens, UniProt P00734); assay: Km and vmax determination with substrate (Lineweaver-Burk), thrombin; details: NIH units per 1 substrate unit
Method: as §1, §2, §3, §4

[4] = biological target: T2, trypsin (Bos taurus, UniProt P00760); assay: Km and vmax determination with substrate (Lineweaver-Burk), trypsin; details: NF units per 1 substrate unit
T2 sequence (P00760 24-246): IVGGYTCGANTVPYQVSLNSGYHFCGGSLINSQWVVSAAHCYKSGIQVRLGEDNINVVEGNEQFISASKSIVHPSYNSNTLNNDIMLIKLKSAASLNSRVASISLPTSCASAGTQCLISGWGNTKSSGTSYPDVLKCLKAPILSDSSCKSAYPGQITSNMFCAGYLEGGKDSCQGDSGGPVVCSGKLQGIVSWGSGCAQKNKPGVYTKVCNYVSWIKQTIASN
Method: as §1, §2, §3, §4

[5] = biological target: T3, prothrombin activator from venom of the snake Echis carinatus (Echis carinatus, UniProt Q90495); assay: Activity of prothrombin activator measured with substrates at a constant substrate concentration
T3 sequence (Q90495 191-616): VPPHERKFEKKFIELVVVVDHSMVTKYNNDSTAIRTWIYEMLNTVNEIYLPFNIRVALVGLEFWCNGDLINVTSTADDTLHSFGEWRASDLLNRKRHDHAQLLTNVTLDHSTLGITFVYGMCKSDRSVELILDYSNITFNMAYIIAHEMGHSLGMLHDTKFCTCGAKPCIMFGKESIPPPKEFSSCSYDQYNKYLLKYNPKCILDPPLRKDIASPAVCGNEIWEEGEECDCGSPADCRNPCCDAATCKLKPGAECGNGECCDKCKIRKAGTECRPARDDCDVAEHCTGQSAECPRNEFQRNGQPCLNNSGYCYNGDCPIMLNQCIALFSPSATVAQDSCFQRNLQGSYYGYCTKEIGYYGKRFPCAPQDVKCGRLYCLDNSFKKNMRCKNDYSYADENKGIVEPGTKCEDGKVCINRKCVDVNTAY
Description: (§7) The degree of the enzymatic hydrolysis of the substrate, which is proportional to the quantity of p-nitroaniline formed, can be easily determined by spectrophotometric measurement at 405 nm. The presence of an excess of substrate exerts no disturbing effect on the measurement at 405 nm. The conditions are practically the same for the other substrates carrying a p-nitroanilino group as a chromogenic group. The spectrophotometric measurement was, therefore, carried out in all cases at 405 nm.
(§8) Activity of papain and prothrombin activator, measured by means
(§9) Quantity in nm of p-nitroaniline (pNA) re-
(§10) leased within 1 minute by 0.1 milli-Anson
(§11) unit^3) of papain and 10 μg of a pure fraction
of the prothrombin activator from venom of
the snake Echis carinatus
^2) The prothrombin activator is a serine-protease which was isolated
from the venom of the snake Echis carinatus.

[6] = biological target: T4, plasmin (Homo sapiens, UniProt P00747); assay: Activity of human plasmin measured with the substrates at constant substrate and enzyme concentrations; details: split product
Method: as §5, §6

[7] = biological target: T4, plasmin; assay: Km and vmax determination with substrate (Lineweaver-Burk), plasmin; details: casein units per 1 substrate unit
Method: as §1, §2, §3, §4

[8] = biological target: T5, papain (Carica papaya, UniProt P00784); assay: Activity of papain measured with substrates at a constant substrate concentration
T5 construct: from tissue; host or cells: latex of the Carica papaya fruit
T5 sequence (P00784 134-345): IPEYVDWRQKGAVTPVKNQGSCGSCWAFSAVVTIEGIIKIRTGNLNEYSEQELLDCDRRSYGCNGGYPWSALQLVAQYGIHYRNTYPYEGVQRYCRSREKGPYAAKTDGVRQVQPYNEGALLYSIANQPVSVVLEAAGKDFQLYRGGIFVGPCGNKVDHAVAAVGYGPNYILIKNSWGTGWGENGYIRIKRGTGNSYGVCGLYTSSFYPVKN
Description: as §7, §8, §9, §10, §11
^1) Papain is a cysteine-protease isolated from the latex of the gree
^3) One Anson unit is the enzyme quantity which releases 1 mmole of
folin-positive amino acids (calculated as tyrosine) in 1 minute (cf. Art.

T4 sequence (P00747 581-810 limits assumed): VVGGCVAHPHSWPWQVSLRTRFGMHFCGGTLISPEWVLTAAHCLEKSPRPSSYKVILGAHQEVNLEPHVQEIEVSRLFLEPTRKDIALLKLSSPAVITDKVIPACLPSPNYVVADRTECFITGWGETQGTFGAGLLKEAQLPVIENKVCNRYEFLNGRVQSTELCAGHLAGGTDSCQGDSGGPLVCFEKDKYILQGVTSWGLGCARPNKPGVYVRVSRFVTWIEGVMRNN
T4 sequence (P00747 97-580 partner limits assumed): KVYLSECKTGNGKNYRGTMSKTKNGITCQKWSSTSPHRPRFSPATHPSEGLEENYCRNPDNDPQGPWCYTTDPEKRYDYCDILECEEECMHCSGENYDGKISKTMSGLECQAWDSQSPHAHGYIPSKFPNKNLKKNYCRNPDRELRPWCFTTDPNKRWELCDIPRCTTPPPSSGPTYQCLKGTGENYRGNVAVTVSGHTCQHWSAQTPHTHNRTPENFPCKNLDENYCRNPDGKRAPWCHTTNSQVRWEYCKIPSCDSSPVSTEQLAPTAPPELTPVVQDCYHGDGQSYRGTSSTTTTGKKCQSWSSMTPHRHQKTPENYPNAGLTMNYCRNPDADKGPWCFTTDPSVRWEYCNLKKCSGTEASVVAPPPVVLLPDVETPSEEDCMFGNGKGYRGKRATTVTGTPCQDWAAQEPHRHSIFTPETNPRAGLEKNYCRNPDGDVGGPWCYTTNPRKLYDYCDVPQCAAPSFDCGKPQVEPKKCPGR
T1 sequence (P03952 391-638 limits assumed, species assumed): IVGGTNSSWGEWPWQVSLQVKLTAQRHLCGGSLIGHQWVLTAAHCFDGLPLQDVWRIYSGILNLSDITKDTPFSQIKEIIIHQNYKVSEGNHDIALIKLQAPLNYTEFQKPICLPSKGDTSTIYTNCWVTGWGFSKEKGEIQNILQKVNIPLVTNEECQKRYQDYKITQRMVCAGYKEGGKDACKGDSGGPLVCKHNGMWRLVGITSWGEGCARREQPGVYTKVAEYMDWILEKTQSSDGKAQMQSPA
T1 sequence (P03952 20-390 partner limits assumed, species assumed): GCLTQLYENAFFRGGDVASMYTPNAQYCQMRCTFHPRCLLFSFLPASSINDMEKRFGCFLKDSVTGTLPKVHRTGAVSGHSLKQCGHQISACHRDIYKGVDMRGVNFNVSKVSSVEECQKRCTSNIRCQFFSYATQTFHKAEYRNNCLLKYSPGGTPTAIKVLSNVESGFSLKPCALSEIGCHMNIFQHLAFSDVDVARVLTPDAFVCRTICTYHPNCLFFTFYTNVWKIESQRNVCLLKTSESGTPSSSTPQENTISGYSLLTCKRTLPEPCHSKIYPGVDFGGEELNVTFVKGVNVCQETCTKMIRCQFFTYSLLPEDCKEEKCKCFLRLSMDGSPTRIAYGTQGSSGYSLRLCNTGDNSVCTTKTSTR

Row | Structure (SMILES) | relation between substrate units and common units (1 U = x) [1] [BAEE U] | Quantity of p-nitroaniline (pNA), β-naphthylamine (2-NA) or 4-methoxy-β-naphthylamine (4-MeO-2-NA) released within 1 minute by 1 BAEE unit of plasma kallikrein [2] [nm] | relation between substrate units and common units (1 U = x) [3] [NIH] | relation between substrate units and common units (1 U = x) [4] [NF] | Quantity of p-nitroaniline (pNA) released within 1 minute by 10 μg of a pure fraction of the prothrombin activator from venom of Echis carinatus [5] [nm] | Quantity of p-nitroaniline (pNA), β-naphthylamine (2-NA) or 4-methoxy-β-naphthylamine (4-MeO-2-NA) released within 1 minute by one C unit of human plasmin [6] [nm] | relation between substrate units and common units (1 U = x) [7] [C U] | Quantity of p-nitroaniline (pNA) released within 1 minute by 0.1 milli-Anson unit of papain [8] [nm]
1 | N=C(N)NCCC[C@H](NC(=O)[C@H](Cc1ccccc1)NC(=O)[C@@H]1CCCN1C(=O)c1ccccc1)C(=O)Nc1ccc([N+](=O)[O-])cc1 [Substrate I, N^α-Bz-Pro-Phe-Arg-pNA^. HCl] (Bz-Pro-Phe-Arg-pNA) | 4.8 | 135.5 | 117600 | 12000 | 13.1 | 152.0 | 518 | 
2 | N=C(N)NCCC[C@H](NC(=O)[C@H](Cc1ccccc1)NC(=O)[C@@H]1CCCN1C(=O)CCc1ccccc1)C(=O)Nc1ccc([N+](=O)[O-])cc1 [Substrate VII, N^α -3-Phenyl-propionyl-Pro-Phe-Arg-pNA.HCl] (Hydrocinnamoyl-Pro-Phe-Arg-pNA) |  | 256.0 |  |  |  | 144.0 |  | 24.9
